Reference: patent publication US20210340130A1, “Compositions and methods for treating attention deficit disorders” (priority 2016, published 2021)
Entries after “also recorded” stand apart in the source; their conditions may differ.

Assays:
[1] = tested on: hippocampal slices (CA1 population spikes)
Procedure: Slice Seizure Assay In these studies extracellular field potentials recording (Population Spikes) in hippocampal slices were used to determine convulsant activity (potential seizure liability). Transverse 300-400 μm hippocampal slices were taken from adult male Sprague-Dawley rats (4-6 week old) and incubated in a submerge slice recording chamber system for 30 to 60 min. The chamber was perfused with oxygenated artificial cerebral spinal fluid (ACSF) comprising (in mM): NaCl 124, KCl 3.0, KH2PO4 1.25, CaCl2.34, MgSO4 2.5, NaHCO3 26 and glucose 10 at room temperature. Population Spike (PS) recordings were made with glass electrodes filled with 2 M NaCl (1-5 megaohm) places in the region of pyramidal cell body of CA1. Electrical stimuli were produced with twisted bipolar nichrome wire electrodes in the Schaffer-commissural fiber afferents. Population spike was induced by activating Schaffer-commissural fiber using single pulse stimulation with delivered at 0.05 Hz. The maximal amplitude of PS was determined by increase stimulating intensity till second spike appears. Then the intensity was decreased to induce a 50% to 60% of maximal response. The amplitude of PS was measured for each response and plotted against time. At same time the amplitude of second PS and/or number of PS was measured and plotted against time. The size of the second PS and numbers of PS were used to estimate the seizure potential or seizure state. With 20 to 50 min stable baseline established testing compound was perfused for 10 to 20 min at each concentration to observe the effect. […] The perfusion then was switched to control ACSF and continued to record until drug effect was washed back to the baseline. CX717 and CX1739 exemplary test ampakine compounds were prepared by dissolving in DMSO and then added to ACSF.
The upper 3 panels of FIG. 5 show amplitudes for PS 1, 2 and 3 m respectively. Lower panel is the measurement of the number of PS.

schizophrenia patients = details: cited from earlier work
hippocampal slices = details: cited from earlier work
[2] = tested on: cyclothiazide binding site; details: cited from earlier work
[3] = tested on: fragile X syndrome patients; details: cited from earlier work
BDNF production = details: 16 uM; cited from earlier work

picrotoxin [reference compound]
seizure activity (population spikes) ([1]; 50 μM perfusion): induced a seizure like activity at the level of second PS but not third PS

O=C(c1ccc2nccnc2c1)N1CCCCC1 [CX516]
cognition tests versus placebo groups (schizophrenia patients; add-on to clozapine, olanzapine or risperidone, weeks 4 or 8): did not significantly differ | adverse side effects (schizophrenia patients; four weeks treatment): fatigue, epigastric discomfort and insomnia | generalized discharges in hippocampal slices (hippocampal slices): do not | binding to the cyclothiazide binding site [2]: does not bind to the cyclothiazide binding site | memory, language use, attention, executive and overall functioning [3]: did not exhibit improved memory

O=C1c2cc3c(cc2OC2CCCN12)OCCO3 (stereo not shown) [CX614, reference compound]
seizure / convulsant activity ([1]; 16 uM): demonstrated seizure potential activity; also recorded: unacceptable convulsant activity | BDNF production in hippocampal slices (BDNF production): significantly increases BDNF production

O=C(c1ccc2c(c1)OCCO2)N1CCCCC1 [CX546]
generalized discharges in hippocampal slices (hippocampal slices): produce generalized discharges | binding to the cyclothiazide binding site [2]: binds to the cyclothiazide binding site
